Measurements: ChEMBL document CHEMBL4028802, “DILIrank: the largest reference drug list ranked by the risk for developing drug-induced liver injury in humans” (Drug Discov Today, 2016)
Non-standard residues stand in square brackets, D forms with d. Residues, ends and D or L forms follow the SMILES beside them. d(hArg(Et2)) = CCN=C(NCC)NCCCC[C@@H](N)C(=O)O; hArg(Et2) = CCN=C(NCC)NCCCC[C@H](N)C(=O)O; dPhe(4-Cl) = N[C@H](Cc1ccc(Cl)cc1)C(=O)O; d2Nal = N[C@H](Cc1ccc2ccccc2c1)C(=O)O; d3Pal = N[C@H](Cc1cccnc1)C(=O)O

Assays:
Homo sapiens [1] = species on record: Homo sapiens; test: Liver toxicity in human assessed as induction of drug-induced liver injury by measuring severity class index
Homo sapiens [2] = species on record: Homo sapiens; test: Liver toxicity in human assessed as induction of drug-induced liver injury by measuring verified drug-induced liver injury concern status
Wherever DILI severity class is given: key of the grades not given here.

Row | SMILES | DILI_severity_class (Homo sapiens [1]) | DILI_Concern (Homo sapiens [2])
1 | O=C(NCC1CCCCN1)c1cc(OCC(F)(F)F)ccc1OCC(F)(F)F (stereo unspecified) [FLECAINIDE] | 7 | Less-Dili-Concern
2 | OC(Cn1cncn1)(Cn1cncn1)c1ccc(F)cc1F [FLUCONAZOLE] | 8 | Most-Dili-Concern
3 | Nc1nc(=O)[nH]cc1F [FLUCYTOSINE] | 3 | Ambiguous-Dili-Concern
4 | Nc1nc(F)nc2c1ncn2[C@@H]1O[C@H](COP(=O)(O)O)[C@@H](O)[C@@H]1O [FLUDARABINE PHOSPHATE] | 0 | No-Dili-Concern
5 | C[C@]12CCC(=O)C=C1CC[C@H]1[C@@H]3CC[C@](O)(C(=O)CO)[C@@]3(C)C[C@H](O)[C@@]12F [FLUDROCORTISONE] | 0 | No-Dili-Concern
6 | CCOC(=O)c1ncn2c1CN(C)C(=O)c1cc(F)ccc1-2 [FLUMAZENIL] | 0 | No-Dili-Concern
7 | O=c1[nH]cc(F)c(=O)[nH]1 [FLUOROURACIL] | 0 | Less-Dili-Concern
8 | CNCCC(Oc1ccc(C(F)(F)F)cc1)c1ccccc1 (stereo unspecified) [FLUOXETINE] | 3 | Less-Dili-Concern
9 | C[C@]1(O)CC[C@H]2[C@@H]3CCC4=CC(=O)CC[C@]4(C)[C@@]3(F)[C@@H](O)C[C@@]21C [FLUOXYMESTERONE] | 8 | Ambiguous-Dili-Concern
10 | OCCN1CCN(CCCN2c3ccccc3Sc3ccc(C(F)(F)F)cc32)CC1 [FLUPHENAZINE] | 3 | Ambiguous-Dili-Concern
11 | CCN(CC)CCN1C(=O)CN=C(c2ccccc2F)c2cc(Cl)ccc21 [FLURAZEPAM] | 4 | Less-Dili-Concern
12 | CC(C(=O)O)c1ccc(-c2ccccc2)c(F)c1 (stereo unspecified) [FLURBIPROFEN] | 3 | Ambiguous-Dili-Concern
13 | CC(C)C(=O)Nc1ccc([N+](=O)[O-])c(C(F)(F)F)c1 [FLUTAMIDE] | 8 | Most-Dili-Concern
14 | CC(C)n1c(/C=C/C(O)CC(O)CC(=O)O)c(-c2ccc(F)cc2)c2ccccc21 (stereo unspecified) [FLUVASTATIN] | 3 | Less-Dili-Concern
15 | COCCCC/C(=N\OCCN)c1ccc(C(F)(F)F)cc1 [FLUVOXAMINE] | 3 | Ambiguous-Dili-Concern
16 | Nc1nc2ncc(CNc3ccc(C(=O)N[C@@H](CCC(=O)O)C(=O)O)cc3)nc2c(=O)[nH]1 [FOLIC ACID] | 0 | No-Dili-Concern
17 | Cc1cn[nH]c1 [FOMEPIZOLE] | 3 | Ambiguous-Dili-Concern
18 | CO[C@H]1O[C@H](COS(=O)(=O)[O-])[C@@H](O[C@@H]2O[C@@H](C(=O)[O-])[C@@H](O[C@H]3O[C@H](COS(=O)(=O)[O-])[C@@H](O[C@@H]4O[C@H](C(=O)[O-])[C@@H](O[C@H]5O[C@H](COS(=O)(=O)[O-])[C@@H](O)[C@H](O)[C@H]5NS(=O)(=O)[O-])[C@H](O)[C@H]4O)[C@H](OS(=O)(=O)[O-])[C@H]3NS(=O)(=O)[O-])[C@H](O)[C@H]2OS(=O)(=O)[O-])[C@H](O)[C@H]1NS(=O)(=O)[O-].[Na+].[Na+].[Na+].[Na+].[Na+].[Na+].[Na+].[Na+].[Na+].[Na+] [FONDAPARINUX SODIUM] | 3 | Less-Dili-Concern
19 | CC(C)CN(C[C@@H](OP(=O)(O)O)[C@H](Cc1ccccc1)NC(=O)O[C@H]1CCOC1)S(=O)(=O)c1ccc(N)cc1 [FOSAMPRENAVIR] | 3 | Ambiguous-Dili-Concern
20 | C[C@@H](O[C@H]1OCCN(Cc2nc(O)n(P(=O)(O)O)n2)[C@H]1c1ccc(F)cc1)c1cc(C(F)(F)F)cc(C(F)(F)F)c1 [FOSAPREPITANT] | 3 | Ambiguous-Dili-Concern
21 | O=C(O)P(=O)(O)O [FOSCARNET] | 3 | Ambiguous-Dili-Concern
22 | C[C@@H]1O[C@@H]1P(=O)(O)O [FOSFOMYCIN] | 6 | Less-Dili-Concern
23 | CCC(=O)O[C@@H](O[P@](=O)(CCCCc1ccccc1)CC(=O)N1C[C@H](C2CCCCC2)C[C@H]1C(=O)O)C(C)C [FOSINOPRIL] | 3 | Less-Dili-Concern
24 | O=C1NC(c2ccccc2)(c2ccccc2)C(=O)N1COP(=O)(O)O [FOSPHENYTOIN] | 8 | Most-Dili-Concern

Row | SMILES | DILI_severity_class (Homo sapiens [1]) | DILI_Concern (Homo sapiens [2])
25 | CC(C)c1cccc(C(C)C)c1OCOP(=O)(O)O [FOSPROPOFOL] | 0 | Less-Dili-Concern
26 | CN[C@@H]1CCc2[nH]c3ccc(C(N)=O)cc3c2C1 [FROVATRIPTAN] | 0 | No-Dili-Concern
27 | C[C@]12CC[C@@H]3c4ccc(O)cc4C[C@@H](CCCCCCCCC[S+]([O-])CCCC(F)(F)C(F)(F)F)[C@H]3[C@@H]1CC[C@@H]2O (stereo partly specified) [FULVESTRANT] | 7 | Ambiguous-Dili-Concern
28 | NCC1(CC(=O)O)CCCCC1 [GABAPENTIN] | 3 | Less-Dili-Concern
29 | COc1ccc2c3c1O[C@H]1C[C@@H](O)C=C[C@@]31CCN(C)C2 [GALANTAMINE] | 3 | Ambiguous-Dili-Concern
30 | Nc1nc(O)c2ncn(COC(CO)CO)c2n1 [GANCICLOVIR] | 7 | Ambiguous-Dili-Concern
31 | CC(=O)O.CC(=O)O.CC/N=C(\NCC)NCCCC[C@H](NC(=O)[C@H](CC(C)C)NC(=O)[C@@H](CCCCN/C(=N/CC)NCC)NC(=O)[C@H](Cc1ccc(O)cc1)NC(=O)[C@H](CO)NC(=O)[C@@H](Cc1cccnc1)NC(=O)[C@@H](Cc1ccc(Cl)cc1)NC(=O)[C@@H](Cc1ccc2ccccc2c1)NC(C)=O)C(=O)N1CCC[C@H]1C(=O)N[C@H](C)C(N)=O [GANIRELIX ACETATE] (Ac-[d2Nal][dPhe(4-Cl)][d3Pal]SY[d(hArg(Et2))]L[hArg(Et2)]P[dA]-NH2) | 0 | No-Dili-Concern
32 | COc1cc2ncnc(Nc3ccc(F)c(Cl)c3)c2cc1OCCCN1CCOCC1 [GEFITINIB] | 4 | Most-Dili-Concern
33 | Nc1ccn([C@@H]2O[C@H](CO)[C@@H](O)C2(F)F)c(=O)n1 [GEMCITABINE] | 8 | Most-Dili-Concern
34 | Cc1ccc(C)c(OCCCC(C)(C)C(=O)O)c1 [GEMFIBROZIL] | 4 | Most-Dili-Concern
35 | CO/N=C1\CN(c2nc3c(cc2F)c(=O)c(C(=O)O)cn3C2CC2)CC1CN (stereo unspecified) [GEMIFLOXACIN] | 3 | Less-Dili-Concern
36 | O=C(OCC(O)CO)c1ccccc1Nc1ccnc2cc(Cl)ccc12 (stereo unspecified) [GLAFENINE] | 8 | Most-Dili-Concern
37 | CCC1=C(C)CN(C(=O)NCCc2ccc(S(=O)(=O)NC(=O)N[C@H]3CC[C@H](C)CC3)cc2)C1=O [GLIMEPIRIDE] | 7 | Less-Dili-Concern
38 | Cc1cnc(C(=O)NCCc2ccc(S(=O)(=O)NC(=O)NC3CCCCC3)cc2)cn1 [GLIPIZIDE] | 3 | Less-Dili-Concern
39 | NC(=O)CC[C@H](N)C(=O)O [GLUTAMINE] | 3 | Ambiguous-Dili-Concern
40 | COc1ccc(Cl)cc1C(=O)NCCc1ccc(S(=O)(=O)NC(=O)NC2CCCCC2)cc1 [GLYBURIDE] | 3 | Less-Dili-Concern
41 | C[N+]1(C)CCC(OC(=O)C(O)(c2ccccc2)C2CCCC2)C1 (stereo unspecified) [GLYCOPYRRONIUM] | 0 | No-Dili-Concern
42 | CC(C)C[C@H](NC(=O)[C@@H](COC(C)(C)C)NC(=O)[C@H](Cc1ccc(O)cc1)NC(=O)[C@H](CO)NC(=O)[C@H](Cc1c[nH]c2ccccc12)NC(=O)[C@H](Cc1cnc[nH]1)NC(=O)[C@@H]1CCC(=O)N1)C(=O)N[C@@H](CCCNC(=N)N)C(=O)N1CCC[C@H]1C(=O)NNC(N)=O [GOSERELIN] | 3 | Ambiguous-Dili-Concern
43 | CN1C2CCCC1CC(NC(=O)c1nn(C)c3ccccc13)C2 (stereo unspecified) [GRANISETRON] | 3 | Ambiguous-Dili-Concern
44 | COC1=CC(=O)C[C@@H](C)[C@]12Oc1c(Cl)c(OC)cc(OC)c1C2=O [GRISEOFULVIN] | 8 | Most-Dili-Concern
45 | COc1ccccc1OCC(O)CO (stereo unspecified) [GUAIFENESIN] | 0 | No-Dili-Concern
46 | N=C(N)NCCN1CCCCCCC1 [GUANETHIDINE] | 0 | No-Dili-Concern
47 | N=C(N)NC(=O)Cc1c(Cl)cccc1Cl [GUANFACINE] | 3 | Ambiguous-Dili-Concern
48 | N=C(N)N [GUANIDINE] | 3 | Ambiguous-Dili-Concern
